This is an account of results in the SangsterLogP compilation.

Broadly, the logP is a log measure of how a compound divides between an organic and an aqueous phase. With `CN(C)c1ccc(NS(=O)(=O)c2ccc(N)cc2)nc1`, the logP is 1.23.
The figure for `Nc1ccc(S(=O)(=O)Nc2ccccc2Cl)cc1` is 2; for `Nc1ccc(S(=O)(=O)Nc2ncc(Cl)cc2Cl)cc1` it is 1.97.
In the case of `Nc1ccc(S(=O)(=O)Nc2ccc(Br)cn2)cc1` it was 2.3; in that of `Cc1cc(Br)cnc1NS(=O)(=O)c1ccc(N)cc1`, 2.05.
In the case of `CCc1cnc(NS(=O)(=O)c2ccc(N)cc2)nc1` it was 0.84; in that of `COc1ccccc1NS(=O)(=O)c1ccc(N)cc1`, 1.56.
As for `Nc1ccc(S(=O)(=O)Nc2ncccc2Br)cc1`, the logP amounted to 1.24.
In the case of `Nc1ccc(S(=O)(=O)Nc2ccc(Cl)cn2)cc1` it was 1.82; in that of `Nc1ccc(S(=O)(=O)Nc2ccccc2[N+](=O)[O-])cc1`, 1.76; in that of `N#Cc1cccnc1NS(=O)(=O)c1ccc(N)cc1`, 0.15.
Turning to `Nc1ccc(S(=O)(=O)Nc2ncccc2Cl)cc1`, the logP stood at 0.82.
The figure for `Cc1ccccc1NS(=O)(=O)c1ccc(N)cc1` is 2.03; for `Cc1cccnc1NS(=O)(=O)c1ccc(N)cc1` it is 0.26; for `Nc1ccc(S(=O)(=O)Nc2ccc(Cl)nc2)cc1` it is 2.24.
The figure for `Cc1ccc(NS(=O)(=O)c2ccc(N)cc2)nc1` is 0.49; for `Cc1cnc(NS(=O)(=O)c2ccc(N)cc2)c(Br)c1` it is 1.79; for `Nc1ccc(S(=O)(=O)Nc2ncc(Br)cc2Br)cc1` it is 2.74.
In the case of `Nc1ccc(S(=O)(=O)Nc2cccnc2Cl)cc1` it was 1.58; in that of `Cc1cnc(NS(=O)(=O)c2ccc(N)cc2)nc1`, 0.17.
